Measurements from patent US7112564B2, “Biodegradable glucosaminemuramyl peptides for apoptosis modulation” (Zylacta Corporation, priority 2003, dated 2006).

System: A549 cells (human lung cancer)
Assay: Inhibition of TNF alpha cytotoxicity (LDH release into culture supernatant)
Type: cell-based
Details: ingredient at 1 ug/ml, FIG. 2
Description: A549 cells (human lung cancer) were seeded in six-well plates, and after 24 h (70% confluence) treated with 25 ug/ml cycloheximide (CHX) and either 100 U/ml human TNF (Beoringer) or an agonist monoclonal antibody to FAS (Panerva) in concentration 200 ng/ml. GMDP, and GMHP were added just prior to the cytokine in the concentrations discussed in the figure legends. Twenty hours after the treatment 20 ul of the cultured supernatant was removed and tested for the LDH activity in 96 well plates in triplicate. Samples were assayed on an EL340 Microplate reader (Biotec Instruments, Inc) at 490-nm wavelength.
The purpose of this experiment was to show the synergistic effect of NAG and D-glutamine on LDH release. Technically the experiment was similar to example 1. Both ingredients were added in concentration 1 ug/ml. […] Almost 50% inhibition of LDH activity was noticed for NAG+D-glutamine composition. […] The glucosamine muramyl hexapeptide has 3 D-amino acids while GMDP has only one D-isoglutamine.

SMILES: NC(=O)CC[C@H](N)C(=O)O [L-glutamine]
- protection of cells from TNF alpha cytotoxicity (LDH release): does not protect cells from TNF alpha cytotoxicity
